Results: patent publication US20100130549A1, “PSYCHOTROPIC COMPOUNDS, COMPOSITIONS AND METHODS OF USE” (priority 2007, published 2010)
Several values for one entry are separate records, joined by “and”; a condition that tells them apart may be missing. Equal entries are not always repeated.

Tests used:
[1] = target: T1, Serotonin (5-Hydroxytryptamine) 5-HT2C (Homo sapiens, UniProt P28335); test: Radioligand binding assay, 5-HT2C
T1 sequence (P28335 33-458): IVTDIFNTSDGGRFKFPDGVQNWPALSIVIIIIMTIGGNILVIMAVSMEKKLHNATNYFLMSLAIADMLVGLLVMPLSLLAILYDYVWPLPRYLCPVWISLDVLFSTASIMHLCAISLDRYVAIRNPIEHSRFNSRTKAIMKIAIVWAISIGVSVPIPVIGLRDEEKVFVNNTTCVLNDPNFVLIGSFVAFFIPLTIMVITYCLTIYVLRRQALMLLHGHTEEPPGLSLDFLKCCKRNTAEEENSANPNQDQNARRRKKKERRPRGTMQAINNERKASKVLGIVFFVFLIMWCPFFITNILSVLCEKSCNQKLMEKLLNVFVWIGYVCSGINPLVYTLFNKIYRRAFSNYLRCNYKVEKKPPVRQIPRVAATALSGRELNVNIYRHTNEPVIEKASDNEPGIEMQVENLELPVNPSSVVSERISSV
Description: (§1) . Table 1 provides data produced via a receptor binding assay and IC50 and Ki determination. […] In addition, the compound of formula (Ia) has a potent DAT inhibition, which is indicative of dopaminergic uptake inhibition and increased DA activity. In addition to the effect on SERT and DAT, the compound of formula (Ia) inhibited the transporter of Norepinephrine (NET), and several neurotransmitter's receptors like alpha2A and alpha2C receptors, alpha 1A and alphal C, 5HT2A and 5HT2C, signal histamine2 and dopamine D1. This specific profile is in line with the data on antidepressant, anxiolytic and moderate neuro-stimulation activity observed in the animal model studies.
(§2) With regard to the data provided in Table 1, the biochemical assay results are presented as the percent inhibition of specific binding or activity throughout the report. For primary assays, only the lowest concentration with a significant response judged by the assays’ criteria, is shown in this summary. […] Unless otherwise requested, primary screening in duplicate with quantitative data (e.g., IC50±SEM, Ki±SEM and nH) are shown.

Adrenergic α1A = target: T2, Adrenergic α1A (Rattus norvegicus, UniProt P43140); test: Radioligand binding assay, Adrenergic α1A
T2 sequence (P43140 1-466): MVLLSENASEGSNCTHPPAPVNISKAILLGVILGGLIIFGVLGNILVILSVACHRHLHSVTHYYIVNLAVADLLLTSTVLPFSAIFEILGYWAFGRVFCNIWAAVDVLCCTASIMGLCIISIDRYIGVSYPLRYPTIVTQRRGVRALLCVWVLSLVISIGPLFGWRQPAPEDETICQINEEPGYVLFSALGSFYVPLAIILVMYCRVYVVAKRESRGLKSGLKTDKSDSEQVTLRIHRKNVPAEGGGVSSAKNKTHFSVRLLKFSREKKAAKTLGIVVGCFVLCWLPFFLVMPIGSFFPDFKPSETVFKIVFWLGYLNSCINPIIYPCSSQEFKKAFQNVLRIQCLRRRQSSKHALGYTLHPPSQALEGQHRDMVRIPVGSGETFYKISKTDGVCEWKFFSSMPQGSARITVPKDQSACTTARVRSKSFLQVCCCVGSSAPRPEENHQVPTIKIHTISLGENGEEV
Description: as §1, §2

Adrenergic α1D = target: T3, Adrenergic α1D (Homo sapiens, UniProt P25100); test: Radioligand binding assay, Adrenergic α1D
T3 sequence (P25100 1-572): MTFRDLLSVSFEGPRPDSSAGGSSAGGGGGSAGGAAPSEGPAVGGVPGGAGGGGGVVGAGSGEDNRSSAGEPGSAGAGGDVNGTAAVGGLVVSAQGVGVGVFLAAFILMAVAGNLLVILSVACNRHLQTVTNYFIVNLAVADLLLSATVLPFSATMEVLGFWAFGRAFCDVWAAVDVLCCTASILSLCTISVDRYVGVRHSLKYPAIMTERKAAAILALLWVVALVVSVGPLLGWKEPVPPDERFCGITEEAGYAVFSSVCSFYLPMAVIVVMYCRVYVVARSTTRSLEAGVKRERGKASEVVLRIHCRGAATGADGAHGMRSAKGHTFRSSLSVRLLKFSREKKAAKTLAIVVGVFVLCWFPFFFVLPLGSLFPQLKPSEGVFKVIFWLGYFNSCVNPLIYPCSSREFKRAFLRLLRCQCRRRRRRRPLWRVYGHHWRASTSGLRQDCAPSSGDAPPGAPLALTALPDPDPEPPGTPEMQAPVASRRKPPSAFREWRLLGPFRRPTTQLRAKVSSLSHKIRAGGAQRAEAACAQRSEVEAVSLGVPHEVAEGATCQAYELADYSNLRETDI
Description: as §1, §2

BALB/c mice = test: Acute toxicity, ip administration; type: in vivo; settings: ip up to 30 mg/kg
Method: […]. […] The body weight of the mice was determined up to 12 days after administration of the compounds.

BALBc male mice = test: Hot plate test; type: in vivo; settings: 10 mg/kg orally (sertraline equimolar)
Description: The hot-plate test is widely used to measure pain sensation. The latency in response to heat of mice and rats feet is based on the method described by Eddy et al., Synthetic analgesics. II. […] The method is based on placing an animal on heated (52-56 C) surface and measuring the time to response (raising paw, licking of the paw, jumping or running.
The animals were followed for 6 hr.

Dopamine D1 = Dopamine D1 (Homo sapiens, UniProt P21728); test: Radioligand binding assay, Dopamine D1
Description: as §1, §2

Dopamine D1, sequence (P21728 whole entry): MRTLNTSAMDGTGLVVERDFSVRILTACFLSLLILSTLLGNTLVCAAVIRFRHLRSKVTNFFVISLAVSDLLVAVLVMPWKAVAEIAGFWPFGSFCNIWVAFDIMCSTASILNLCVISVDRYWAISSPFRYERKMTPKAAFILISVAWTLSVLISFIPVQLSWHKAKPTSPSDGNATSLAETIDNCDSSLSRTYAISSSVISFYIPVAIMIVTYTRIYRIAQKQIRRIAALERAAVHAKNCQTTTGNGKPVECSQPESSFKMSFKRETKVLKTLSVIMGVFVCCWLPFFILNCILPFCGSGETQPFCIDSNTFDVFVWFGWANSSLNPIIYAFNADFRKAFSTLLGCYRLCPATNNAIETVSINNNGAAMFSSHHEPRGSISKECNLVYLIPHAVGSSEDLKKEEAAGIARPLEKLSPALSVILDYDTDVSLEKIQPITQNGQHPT

SMILES: CN[C@H]1CC[C@@H](c2ccc(Cl)c(Cl)c2)c2ccc(C#CCCCO)cc21 [compound Ia, (1S-cis)-4-(3,4-dichlorophenyl)-7-(5-hydroxy-1-pentyn-1-yl)-1,2,3,4-tetrahydro-N-methyl-1-naphthalenamine hydroiodide]
- IC50 [1]: 9160 nM
- nH [1]: 2.15
- inhibition at 10 µM ([1]; read-out: % INH.): 54%
- Ki ([1]; read-out: K1): 4800 nM
- IC50 (Adrenergic α1A): 4200 nM
- nH (Adrenergic α1A): 1.34
- inhibition at 10 µM (Adrenergic α1A; 10 μM): 73%
- Ki (Adrenergic α1A; read-out: K1): 1700 nM
- IC50 (Adrenergic α1D): 2500 nM
- nH (Adrenergic α1D): 1.04
- inhibition at 3 µM (Adrenergic α1D; 3 μM): 54%
- Ki (Adrenergic α1D; read-out: K1): 1230 nM
- survival (BALB/c mice): all of the corresponding animals survived
- time after drug administration with significant effect on reaction to heating (BALBc male mice; followed for 6 hr, hydroiodide): 120 min and 240 min
- latency to heat sensation (BALBc male mice; vs vehicle treated control): significantly increase
- IC50 (Dopamine D1): 2700 nM
- nH (Dopamine D1): 1.25
- inhibition at 10 µM (Dopamine D1; 10 μM): 84%
- Ki (Dopamine D1; read-out: K1): 1350 nM
